A short description of this series: Encapsulation efficiency of the agent in liposomes (free agent removed by gel filtration). The format is physicochemical. Here is the method: In an embodiment, liposomes composed of DOPE/Cholesterol/DSPE-MPEG (54:36:10, molar ratio) were prepared using the ethanolic injection method. Briefly, lipids (DOPE, cholesterol and DSPE-MPEG) were dissolved in ethanol (5% in the classic ethanol injection method; 50% in the new proposed pre-concentration method, relative to the initial 20% aqueous phase) at 60° C.
The solution was injected under stirring to an aqueous solution (phosphate buffered saline, PBS). This process is done at 70° C., remaining during the necessary time to evaporate all the ethanol volume.
In the classic ethanolic injection method liposomes are extruded to reduce their size. In the pre-concentration method, after ethanol evaporation or tangential flow filtration, liposomal dispersion is diluted five times in PBS (remaining 80% of volume is added). The free therapeutic or imaging agent that was not incorporated into liposomes was removed from the samples after passage through a gel filtration chromatography column (GE Healthcare) with 5 kDa cut-off (PD-10 Desalting Columns containing 8.3 mL of Sephadex G-25 Medium). Hydrophilic therapeutic or imaging agents (e.g. methotrexate and doxorubicin) are present in this aqueous phase in the classic ethanol injection method and in the new proposed pre-concentration method. […]

With `CN(Cc1cnc2nc(N)nc(N)c2n1)c1ccc(C(=O)N[C@@H](CCC(=O)O)C(=O)O)cc1` [methotrexate], the “amount of the agent used that was encapsulated” value (before optimization of the production method) is 3-5%. Where the note is “pre-concentration method, 1:1 ethanol:aqueous phase, 2 steps”, this compound displayed an encapsulation efficiencies of around 40%.

Values taken from patent US20220241203A1, “METHOD FOR PRODUCTION OF LIPOSOMES” (UNIVERSIDADE DO MINHO, priority 2019, published 2022).
